Test results taken from patent US20150368642A1, “LNA OLIGONUCLEOTIDE CARBOHYDRATE CONJUGATES” (HOFFMANN-LA ROCHE INC., priority 2013, published 2015).
Strand notation (5' to 3'): a small letter for the sugar, then the base; units joined by * are phosphorothioate-linked, units joined directly phosphodiester-linked; [ ] holds rarer units or linkages, { } end groups; capitals alone tell only the bases. {Conj1a} = GalNAc carbohydrate conjugate Conj1a; l = locked nucleic acid (LNA); [5mC] = 5-methylcytosine; d = 2'-deoxy (DNA)

Assays:
ApoB mRNA = assay: In vivo silencing of ApoB mRNA with monoGalNAc conjugates (branched DNA assay); conditions: Example 4; C57BL6 mice, single 1 mg/kg i.v., day 7; compared to unconjugated #12; FIG. 7a
Text: Capital letters are LNA nucleosides (such as beta-D-oxy LNA), lower case letters are a DNA nucleoside. Subscript s represents a phosphorothioate internucleoside linkage (region A). LNA cytosines are optionally 5-methyl cytosine. The 2PO linker (region B) is 5′ to the sequence region A, and comprises of two DNA nucleosides linked by phosphodiester linkage, with the internucleoside linkage between the 3′ DNA nucleoside of region A and the 5′ LNA nucleoside of region A also being phosphodiester. A linkage group (Y) may be used to link the conjugate group, when present, to region B, or A (SEQ ID NO 8 and 11). To compare the monoGalNAc conjugates with different linkers and the GalNAc cluster C57BL6 mice were treated i.v. with saline control or with a single dose of 1 mg/kg of ASO conjugated to Mono-GalNAc either without biocleavable linker, with Dithio-linker (SS) or with DNA/PO-linker (PO) (FIG. 7a) or with 0.25 mg/kg of ASO conjugated to Mono-GalNAc or GalNAc cluster (FIG. 7b). After 7 days the animals were sacrificed and RNA was isolated from liver and kidney samples and analysed for ApoB mRNA expression.
C57BL6 mice were dosed i.v. with a single dose of 1 mg/kg or 0.25 mg/kg ASO formulated in saline or saline alone according to the above table. […] Total RNA was extracted from liver and kidney samples and ApoB mRNA levels were analysed using a branched DNA assay.

ApoB = assay: Non-human primate study, serum ApoB and LDL-C (ApoB conjugates); assay type: in vivo, cynomolgus monkeys; conditions: Example 7; single i.v. dose; FIG. 16
Protocol: The primary objective for this study is to investigate selected lipid markers over 7 weeks after a single slow bolus injection of anti-PCSK9 and anti-ApoB LNA conjugated to GalNac cluster (Conj2a) to cynomolgus monkeys and assess the potential toxicity of compounds in monkey. The compounds which were prepared in sterile saline (0.9%) at an initial concentration of 0.625 and 2.5 mg/ml).
Male (PCSK9) or female monkeys (ApoB) monkeys of at least 24 months old are used, and given free access to tap water and 180 g of MWM(E) SQC SHORT expanded diet (Dietex France, SDS, Saint Gratien, France) will be distributed daily per animal. The total quantity of food distributed in each cage will be calculated according to the number of animals in the cage on that day. In addition, fruit or vegetables will be given daily to each animal. The animals will be acclimated to the study conditions for a period of at least 14 days before the beginning of the treatment period. During this period, pre-treatment investigations will be performed. The animals are dosed i.v. at a dose if, for example, 0.25 mg/kg or 1 mg/kg. The dose volume will be 0.4 mL/kg. 2 animals are used per group. After three weeks, the data will be analyzed and a second group of animals using a higher or lower dosing regimen may be initiated—preliminary dose setting is 0.5 mg/kg and 1 mg/kg, or lower than that based on the first data set.
The dose formulations will be administered once on Day 1. Animals will be observed for a period of 7 weeks following treatment, and will be released from the study on Day 51. Day 1 corresponds to the first day of the treatment period. Clinical observations and body weight and food intake (per group) will be recorded prior to and during the study.
The following parameters will be determined for all surviving animals at the occasions indicated below: • full biochemistry panel (complete list below)—on Days −8, 15 and 50, • liver Safety (ASAT, ALP, ALAT, TBIL and GGT only)—on Days 4, 8, 22 and 36, • lipid profile (Total cholesterol, HDL-C, LDL-C and Triglycerides) and Apo-B only—on Days −1, 4, 8, 22, 29, 36, and 43.
Blood (approximately 1.0 mL) is taken into lithium heparin tubes (using the ADVIA 1650 blood biochemistry analyzer): Apo-B, sodium, potassium, chloride, calcium, inorganic phosphorus, glucose, HDL-C, LDL-C, urea, creatinine, total bilirubin (TBIL), total cholesterol, triglycerides, alkaline phosphatase (ALP), alanine aminotransferase (ALAT), aspartate aminotransferase (ASAT), creatine kinase, gamma-glutamyl transferase (GGT), lactate dehydrogenase, total protein, albumin, albumin/globulin ratio.
Other Analysis: WO2011009697 & WO2010142805 provides the methods for the following analysis: qPCR, PCSK9/ApoB mRNA analysis, Other analysis includes PCSK9/ApoB protein ELISA, serum Lp(a) analysis with ELISA (Mercodia No. 10-1106-01), tissue and plasma oligonucleotide analysis (drug content), Extraction of samples, standard- and QC-samples, Oligonucleotide content determination by ELISA. […] There was no indication of hepatotoxicity or nephrotoxicity with the ApoB targeting compounds.

HBV = HBV mouse hydrodynamic tailvein injection model, HBV DNA in liver by qPCR; assay type: in vivo, Balb/C mouse
Text: An LNA oligomer can be assessed for antiviral effect in vivo in a mouse strain, such as BALB/c or C57B/6, where HBV replication can be established by hydrodynamic tail vein injection of a plasmid, such as pAAV/HBV1.3, expressing a partially repeated HBV pregenomic RNA (J Virol. 1995 October; 69(10):6158-69) or pAAV2/HBV1.3, a derivative thereof (WuxiAppTech, Wuxi, China). The injection of the plasmid in a high volume of saline, equal to 8-12% of the body mass of the mouse, will result in the accumulation and expression of the viral pregenomic RNA in the liver, subsequently leading to the establishment of an acute HBV infection. Treatment of the animals with an LNA oligomer can be initiated 1 or more days before the injection of the plasmid or 1 day after the injection of the plasmid. Delivery of the LNA oligomer in saline can be done by intravenous or subcutaneous injection.
An in vivo experiment was performed on SEQ ID 55 and SEQ ID 56, the latter being a GalNAC conjugate of the former (conj1a). The LNA compounds were tested for efficacy against HBV in the mouse hydrodynamic tailvein injection model using the Balb/C mouse strain. LNA compounds were be tested at equimolar doses; 2 and 10 mg/kg, single injection (SEQ ID 55) and at 2.7 and 13.5 mg/kg, single injection (SEQ ID 56). The LNA anti-HBV compounds were compared to saline and to entecavir, an inhibitor of the HBV reverse transcriptase. Entecavir was dosed p.o. daily at 0.1 mg/kg. Where applicable, the animals were treated with the LNA compound 24 hours before the hydrodynamic injection. Entecavir was given in daily doses as described starting 24 hours after the hydrodynamic injection. […] All the animals were monitored on a daily basis for body weight changes and clinical signs for the duration of the in vivo study. […] All the blood samples were collected in tubes containing heparin sodium The portion of the left lobe of each liver was used to determine the level of HBV DNA replication by qPCR, as copies per unit weight of liver in which the quantity of total HBV DNA level is subtracted by the quantity of pAAV2/HBV DNA level. […]

Substance | ApoB mRNA knock down, activity in the liver (ApoB mRNA) | pharmacology (serum ApoB and LDL-C) (ApoB) | other results
SEQ ID NO 10: GsCsaststsgsgstsastsTsCsA, 2PO-DNA (5′ca3′), monoGalNAc; ApoB (CAGCATTGGTATTCA; listed as DNA, chemistry not fully specified) | clearly improved activity in the liver | – | –
SEQ ID NO 8: GsCsaststsgsgstsastsTsCsA, no cleavable linker, monoGalNAc; ApoB (GCATTGGTATTCA; sugars from the 5' end l2 d8 l3, all phosphorothioate, methylation of C not given here; monoGalNAc conjugated without cleavable linker) | clearly improved activity in the liver | – | –
SEQ ID NO 32: GsTstsgsascsascstsgsTsC, 2PO-DNA (5′ca3′), cholesterol; ApoB (CAGTTGACACTGTC; listed as DNA, chemistry not fully specified) | – | effective | –
SEQ ID NO 56: 5′-GsAsGsGscsastsasgscsasgs^mCsAsGsG-3′ with a 5′ GalNac(Conj1a) ({Conj1a}-lG*lA*lG*lG*dC*dA*dT*dA*dG*dC*dA*dG*l[5mC]*lA*lG*lG) | – | – | reduction in viral titer in the liver (HBV; 8 days after delivery of a single dose and 7 days after the initiation of the infection): 90%; effect on replication of HBV / HBV DNA level in the liver (HBV; Balb/C mice, single injection 24 hours before hydrodynamic injection, SEQ ID 55 2 and 10 mg/kg, SEQ ID 56 2.7 and 13.5 mg/kg): excellent dose-dependent antiviral effect
SEQ ID NO 14: GsCsaststsgsgstsastsTsCsA, 2PO-DNA (5′ca3′), cholesterol; ApoB (CAGCATTGGTATTCA; chemistry not fully specified) | – | did not exhibit significant pharmacology | –
SEQ ID NO 17: GsTstsgsascsascstsgsTsC, GalNAc cluster Conj2a; ApoB (GTTGACACTGTC; listed as DNA, chemistry not fully specified) | – | effective | potency compared to the cholesterol conjugated compound (ApoB): considerably more potent than the cholesterol conjugated compound
